The source of these data is patent US6379714B1, “Pharmaceutical grade botanical drugs” (priority 1995, dated 2002).

Series [1] relates to C3H Mammary adenocarcinoma 16/C. The series is described as follows: Growth of subcutaneous transplants of C3H mammary adenocarcinoma 16/C in mice. The series is classed as in vivo, B6C3F1 hybrid female mice. The note with it: 5-Fluorouracil 98 mg/kg, i.p., qd (1, 7, 14, 21). An excerpt:
Anticancer activities of T4GEN and n-T4GEN were studied in animals bearing subcutaneous transplants of C3H Mammary adenocarcinoma 16/C. This tumor is maintained as a lung passed tumor in C3H female mice. In this example, tumors (1×10^6 cells) were transplanted (S.C.) in 18-20 g B6C3F1 hybrid female mice. On the following day, the tumor bearing animals were randomized and separated into different treatment groups (10 mice per group). There were 15 animals in the control group who received only physiological saline during the treatment periods. […] Animals were weighed on days 5, 9 and 14 to assess toxic effects. Tumors were measured on days 21, 28 post transplants and the results are represented as tumor weights using formula [formula]
(I=length of tumor, w=width of tumor expressed in mm).

The nature of series [2]: Body weight change of tumor bearing mice (toxic effects). The series is classed as in vivo, B6C3F1 hybrid female mice. The conditions noted are these: 5-Fluorouracil 98 mg/kg, i.p., qd (1, 7, 14, 21). An excerpt:
Anticancer activities of T4GEN and n-T4GEN were studied in animals bearing subcutaneous transplants of C3H Mammary adenocarcinoma 16/C. This tumor is maintained as a lung passed tumor in C3H female mice. In this example, tumors (1×10^6 cells) were transplanted (S.C.) in 18-20 g B6C3F1 hybrid female mice. On the following day, the tumor bearing animals were randomized and separated into different treatment groups (10 mice per group). There were 15 animals in the control group who received only physiological saline during the treatment periods. The treatments (i.p.) were started 48 hours after the transplants and given for a duration of 14 days (daily single injections). Animals were weighed on days 5, 9 and 14 to assess toxic effects. Tumors were measured on days 21, 28 post transplants and the results are represented as tumor weights using formula [formula]

The structures appear in SMILES notation.

As for `O=c1[nH]cc(F)c(=O)[nH]1` [5-Fluorouracil], in series [1], the “Tumor Free Animals (day 93)” value is reported as 0/6 and the “Tumor Wts (day 21)” value turned out to be 0.00. Further, in series [1] (day 21), the “Tumor Weight Inhibition %” value turned out to be 100%. The “ΔWts (g) (day 14)” value in series [2] is reported as “+1.77 g”.
